pIC50: −log10 of the molar value.
Experiments:
Histone deacetylase 8 = molecular target: T1, Histone deacetylase 8 (Homo sapiens, UniProt Q9BY41); assay: Inhibition of human KDAC8 after 60 mins by fluorescence assay
T1 sequence (Q9BY41 whole entry): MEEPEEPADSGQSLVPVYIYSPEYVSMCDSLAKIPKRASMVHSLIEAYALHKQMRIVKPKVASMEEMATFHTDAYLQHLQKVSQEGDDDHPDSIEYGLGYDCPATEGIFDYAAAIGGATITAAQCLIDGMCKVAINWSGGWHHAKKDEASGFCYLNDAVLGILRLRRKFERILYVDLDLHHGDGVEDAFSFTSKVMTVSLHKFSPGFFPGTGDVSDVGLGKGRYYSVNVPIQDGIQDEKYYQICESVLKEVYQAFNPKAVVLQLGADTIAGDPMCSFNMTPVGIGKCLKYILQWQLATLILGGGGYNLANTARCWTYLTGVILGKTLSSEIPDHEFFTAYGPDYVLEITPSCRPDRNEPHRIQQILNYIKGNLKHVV

[1] = molecular target: T2, Protein deacetylase HDAC6 (Homo sapiens, UniProt Q9UBN7); assay: Inhibition of human KDAC6 using FITC-labeled histone H4 acetylated peptide as substrate after 60 mins by fluorescence assay
T2 sequence (Q9UBN7 whole entry): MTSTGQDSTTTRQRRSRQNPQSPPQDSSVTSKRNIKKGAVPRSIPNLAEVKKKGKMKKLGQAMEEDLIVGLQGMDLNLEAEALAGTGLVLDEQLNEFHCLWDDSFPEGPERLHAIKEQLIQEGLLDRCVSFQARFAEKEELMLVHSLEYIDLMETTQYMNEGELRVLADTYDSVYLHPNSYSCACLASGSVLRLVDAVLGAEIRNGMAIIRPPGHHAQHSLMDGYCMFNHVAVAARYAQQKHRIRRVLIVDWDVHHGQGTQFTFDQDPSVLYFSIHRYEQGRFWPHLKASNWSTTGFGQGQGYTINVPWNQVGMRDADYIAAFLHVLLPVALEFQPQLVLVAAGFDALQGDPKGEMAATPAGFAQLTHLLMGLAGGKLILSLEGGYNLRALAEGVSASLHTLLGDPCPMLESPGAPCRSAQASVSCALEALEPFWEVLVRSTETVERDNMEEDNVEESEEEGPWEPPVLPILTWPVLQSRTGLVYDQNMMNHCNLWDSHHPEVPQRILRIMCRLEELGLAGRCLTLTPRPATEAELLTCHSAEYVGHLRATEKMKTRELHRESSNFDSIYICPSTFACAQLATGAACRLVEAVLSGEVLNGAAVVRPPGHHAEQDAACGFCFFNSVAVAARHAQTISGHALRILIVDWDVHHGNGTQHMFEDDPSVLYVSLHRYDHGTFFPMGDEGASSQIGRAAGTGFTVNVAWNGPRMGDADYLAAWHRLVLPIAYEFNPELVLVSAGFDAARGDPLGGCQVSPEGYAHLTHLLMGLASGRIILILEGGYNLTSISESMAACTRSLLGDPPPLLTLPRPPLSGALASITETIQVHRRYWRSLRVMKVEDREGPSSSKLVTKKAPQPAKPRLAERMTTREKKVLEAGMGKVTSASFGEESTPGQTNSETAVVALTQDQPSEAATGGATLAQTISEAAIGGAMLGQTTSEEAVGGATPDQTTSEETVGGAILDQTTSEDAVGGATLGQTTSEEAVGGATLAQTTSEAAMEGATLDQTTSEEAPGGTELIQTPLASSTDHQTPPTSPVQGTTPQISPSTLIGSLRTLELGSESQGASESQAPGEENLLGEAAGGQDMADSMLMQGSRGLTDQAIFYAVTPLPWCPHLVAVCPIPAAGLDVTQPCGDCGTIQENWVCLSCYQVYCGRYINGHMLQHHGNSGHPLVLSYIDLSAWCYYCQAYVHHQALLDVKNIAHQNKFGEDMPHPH

Histone deacetylase 3 [2] = molecular target: T3, Histone deacetylase 3 (Homo sapiens, UniProt O15379); assay: Inhibition of human KDAC3 using FITC-labeled p53 acetylated peptide as substrate after 60 mins by fluorescence assay
Histone deacetylase 1 [3] = molecular target: T4, Histone deacetylase 1 (Homo sapiens, UniProt Q13547); assay: Inhibition of human KDAC1 using substrate A after 60 mins by fluorescence assay
[4] = molecular target: T5, Histone deacetylase 8 (Homo sapiens) (UniProt Q9BY41); assay: Inhibition of human KDAC8 at 30 uM after 60 mins by fluorescence assay relative to control
T5 sequence (whole entry): T1 sequence (Q9BY41 whole entry)

Histone deacetylase 3 [5] = molecular target: T3, Histone deacetylase 3; assay: Inhibition of human KDAC3 at 30 uM using FITC-labeled p53 acetylated peptide as substrate after 60 mins by fluorescence assay relative to control
Histone deacetylase 1 [6] = molecular target: T4, Histone deacetylase 1; assay: Inhibition of human KDAC1 at 30 uM using substrate A after 60 mins by fluorescence assay relative to control
[7] = molecular target: T6, Protein deacetylase HDAC6 (Homo sapiens) (UniProt Q9UBN7); settings: at 30 µM
T6 sequence (whole entry): T2 sequence (Q9UBN7 whole entry)
Description: Inhibition of human KDAC6 at 30 uM using FITC-labeled histone H4 acetylated peptide as substrate after 60 mins by fluorescence assay relative to control

T3 sequence (O15379 whole entry): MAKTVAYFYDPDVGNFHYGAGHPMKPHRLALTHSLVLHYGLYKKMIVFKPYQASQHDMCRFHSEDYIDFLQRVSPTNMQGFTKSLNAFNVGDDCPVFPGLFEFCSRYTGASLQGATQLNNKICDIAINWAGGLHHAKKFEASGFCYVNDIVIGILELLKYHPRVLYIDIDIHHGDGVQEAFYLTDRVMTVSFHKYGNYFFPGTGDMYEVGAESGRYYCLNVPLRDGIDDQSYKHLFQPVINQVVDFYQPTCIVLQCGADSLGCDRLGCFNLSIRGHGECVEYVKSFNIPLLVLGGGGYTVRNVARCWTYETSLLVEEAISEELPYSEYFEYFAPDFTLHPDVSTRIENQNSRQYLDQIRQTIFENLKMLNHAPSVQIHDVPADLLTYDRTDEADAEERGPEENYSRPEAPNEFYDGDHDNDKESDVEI
T4 sequence (Q13547 whole entry): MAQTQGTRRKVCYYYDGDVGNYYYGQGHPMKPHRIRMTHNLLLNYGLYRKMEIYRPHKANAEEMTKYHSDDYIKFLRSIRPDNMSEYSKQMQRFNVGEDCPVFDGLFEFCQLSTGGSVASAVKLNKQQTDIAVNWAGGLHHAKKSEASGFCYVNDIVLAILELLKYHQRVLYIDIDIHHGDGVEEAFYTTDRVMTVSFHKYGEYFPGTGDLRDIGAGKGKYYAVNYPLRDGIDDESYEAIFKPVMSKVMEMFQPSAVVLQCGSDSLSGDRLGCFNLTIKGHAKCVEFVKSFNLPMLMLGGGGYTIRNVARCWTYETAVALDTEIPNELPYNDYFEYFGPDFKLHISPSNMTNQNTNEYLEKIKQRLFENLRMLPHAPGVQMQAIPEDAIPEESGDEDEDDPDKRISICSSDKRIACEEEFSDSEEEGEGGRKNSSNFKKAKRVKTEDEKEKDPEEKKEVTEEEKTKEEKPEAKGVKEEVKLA

Structure (SMILES)	pIC50 (Histone deacetylase 8)	pIC50 [1]	pIC50 (Histone deacetylase 3 [2])	pIC50 (Histone deacetylase 1 [3])	inhibition [4] [%]	inhibition (Histone deacetylase 3 [5]) [%]	inhibition (Histone deacetylase 1 [6]) [%]	inhibition [7] [%]
O=C1Nc2ccccc2C(c2ccccc2)=N[C@H]1Cc1ccccc1	< 4.52	< 4.52	< 4.52	< 4.52	0	0	0.91	3.33
COC(=O)CCCCN1C(=O)[C@H](CCC(=O)OC(C)(C)C)N=C(c2ccccc2)c2ccccc21	< 4.52	< 4.52	< 4.52	< 4.52	2.88	0	2.72	0
CC(C)(C)OC(=O)CC[C@@H]1N=C(c2ccccc2)c2ccccc2N(CCCCC(=O)NO)C1=O	4.58	5.63	5.99	5.34	52.5	99.9	83.8	93.7
CC(C)(C)OC(=O)C[C@@H]1N=C(c2ccccc2)c2ccccc2N(CCCCC(=O)NO)C1=O	4.65	5.19	5.38	4.80	62.3	91.5	64.1	80.6
C[C@@H]1N=C(c2ccccc2)c2ccccc2N(CCCCC(=O)NO)C1=O	4.61	5.53	5.74	4.90	53.8	93.8	68.4	92.7
COC(=O)CCCCN1C(=O)[C@H]([C@@H](C)OCc2ccccc2)N=C(c2ccccc2)c2ccccc21	< 4.52	< 4.52	< 4.52	< 4.52	6.88	7.91	0.64	0
CC(C)(C)OC(=O)n1c(C[C@@H]2N=C(c3ccccc3)c3ccccc3N(CCCCC(=O)NO)C2=O)cc2ccccc21	5.08	5.16	5.28	< 4.52	79.7	93.1	46.9	85
O=C(O)C[C@@H]1N=C(c2ccccc2)c2ccccc2N(CCCCC(=O)NO)C1=O	< 4.52	4.70	4.90	< 4.52	39.4	75.5	47.9	57.8
NC(=O)C[C@@H]1N=C(c2ccccc2)c2ccccc2N(CCCCC(=O)NO)C1=O	< 4.52	5.27	5.51	4.65	26.2	90.9	57.6	82.2
CC(C)(C)OC(=O)CC[C@H]1N=C(c2ccccc2)c2ccccc2NC1=O	< 4.52	< 4.52	< 4.52	< 4.52	4.35	3.85	10.5	4.3
COC(=O)CCCCN1C(=O)[C@@H](CSC(C)(C)C)N=C(c2ccccc2)c2ccccc21	< 4.52	< 4.52	< 4.52	< 4.52	0	0	3.94	0
O=C(O)CCCCN1C(=O)[C@H](CC(=O)NC(c2ccccc2)(c2ccccc2)c2ccccc2)N=C(c2ccccc2)c2ccccc21	< 4.52		< 4.52	< 4.52	11.4	7.32	8.49	
CSCC[C@@H]1N=C(c2ccccc2)c2ccccc2NC1=O	< 4.52	< 4.52	< 4.52	< 4.52	9.07	0	0	2.62
O=C(CCCCN1C(=O)[C@H](CCC(=O)NC(c2ccccc2)(c2ccccc2)c2ccccc2)N=C(c2ccccc2)c2ccccc21)NO	4.63		6.08	5.03	53.1	99.1	78.7	
O=C(CCCCN1C(=O)[C@H](Cc2cc3ccccc3[nH]2)N=C(c2ccccc2)c2ccccc21)NO	< 4.52	5.71	6.00	4.77	34.1	98.9	60	93.2
O=C(O)CCCCN1C(=O)[C@H](CCC(=O)O)N=C(c2ccccc2)c2ccccc21	< 4.52		< 4.52	< 4.52	6.92	1.47	13.6	
COC(=O)CCCCN1C(=O)[C@H](CCC(=O)NC(c2ccccc2)(c2ccccc2)c2ccccc2)N=C(c2ccccc2)c2ccccc21	< 4.52		< 4.52	< 4.52	0	0	7.24	
N[C@H](Cc1ccc(Cl)cc1Cl)C(=O)N1Cc2ccccc2C1	5.96	< 4.52	4.70	4.56				
O=C(CCCCN1C(=O)[C@H](CCC(=O)NO)N=C(c2ccccc2)c2ccccc21)NO	5.07		5.59	4.82	74.7	92.2	62.5	
O=C(CCCCN1C(=O)[C@H](CC(=O)NC(c2ccccc2)(c2ccccc2)c2ccccc2)N=C(c2ccccc2)c2ccccc21)NO	< 4.52		5.37	< 4.52	43.9	89.5	43.1	
Cc1c(C)c(S(=O)(=O)NC(=N)NCCC[C@@H]2N=C(c3ccccc3)c3ccccc3N(CCCCC(=O)O)C2=O)c(C)c2c1OC(C)(C)C2	< 4.52		< 4.52	< 4.52	10.2	3.8	4.96	
COC(=O)CCCCN1C(=O)[C@H](CC(=O)NC(c2ccccc2)(c2ccccc2)c2ccccc2)N=C(c2ccccc2)c2ccccc21	< 4.52		< 4.52	< 4.52	3.62	5.6	8.7	
O=C(O)CC[C@@H]1N=C(c2ccccc2)c2ccccc2N(CCCCC(=O)NO)C1=O	< 4.52		5.06	< 4.52	29.7	79.8	48.1	
O=C(O)CCCCN1C(=O)[C@H](Cc2cncn2C(c2ccccc2)(c2ccccc2)c2ccccc2)N=C(c2ccccc2)c2ccccc21	< 4.52		< 4.52	< 4.52	10.4	0	7.49	
O=C(O)CCCCN1C(=O)[C@H](CCC(=O)NC(c2ccccc2)(c2ccccc2)c2ccccc2)N=C(c2ccccc2)c2ccccc21	< 4.52			< 4.52	11	0	3.58	
COC(=O)CCCCN1C(=O)[C@H](CCCNC(=N)NS(=O)(=O)c2c(C)c(C)c3c(c2C)CC(C)(C)O3)N=C(c2ccccc2)c2ccccc21	< 4.52		< 4.52	< 4.52	7.3	3.33	4.8	

Reference: ChEMBL document CHEMBL3997794, “Design and synthesis of benzodiazepine analogs as isoform-selective human lysine deacetylase inhibitors” (Eur J Med Chem, 2017)
